{"source": "patent EP1463487B1", "about": "“LIPOSOMAL DELIVERY OF VITAMIN E BASED COMPOUNDS” (RESEARCH DEVELOPMENT FOUNDATION, priority 2001, dated 2003)", "key": {"[1]": {"system": "proliferation biomarker KI-67", "experiment": "KI-67 immunohistochemistry of tumor sections (cell proliferation)", "format": "in vivo, Balb/c mice", "settings": "transplantable syngeneic mouse mammary cancer model, in comparison to controls"}, "[2]": {"system": "Poly (ADP-Ribose) Polymerase (PARP)", "experiment": "Western immunoblot detection of PARP cleavage fragment", "format": "cell-based, mouse", "settings": "48 hours", "method": "Poly (ADP-Ribose) Polymerase cleavage was analyzed as an alternate method for detecting apoptosis. 66 cl.4-GFP cells were treated as described above for the DAPI assay. Following the PBS wash, cells were suspended in lysis buffer (1X PBS, 1% Nonidet P-40, 0.5% sodium deoxycholate, 0.1% sodium dodecyl sulfate (SDS), 1 µg/ml leupeptin, 1 µg/ml aprotinin, 1mM dithiothreitol (DTT), 2 mM sodium orthovanadate, 10 µg/ml phenylmethylsulfonyl fluoride (PMSF)) for 30 min at 4°C, vortexed, and supernatants collected by centrifugation at 15,000 X g for 20 min. Protein concentrations were determined using the Bio-Rad (Bradford) protein assay (Bio-Rad Laboratories, Hercules, CA), and samples (100 µg/lane) resolved on 7.5% SDS-polyacrylamide gels electrophoresed under reducing conditions.\nProteins were electroblotted onto a nitrocellulose membrane (0.2 µM pore Optitran BA-S-supported nitrocellulose; Schleicher and Schuell, Keene, NH). After transfer, membranes were blocked with blocking buffer [25 mM Tris-HCl (pH 8.0), 125 mM NaCl, 0.5% Tween-20, and 5% non-fat dry milk] for 45 min at room temperature. Immunoblotting was performed using 1 µg of primary rabbit anti-human Poly (ADP-Ribose) Polymerase antibody [PARP (H-250), Santa Cruz Biotechnology, Santa Cruz, CA], and horseradish peroxidase-conjugated goat anti-rabbit immunoglobulin was used as the secondary antibody (Jackson Immunoresearch Laboratory, West Grove, PA) at a 1:3,000 dilution. Horseradish peroxidase-labeled bands from washed blots were detected by enhanced chemiluminescence (Pierce, Rockford, IL) and autoradiography (Kodak BioMax film; Rochester, NY)."}, "66 cl.4-GFP cells": {"system": "66 cl.4-GFP cells", "experiment": "Tumor growth of 66 cl.4-GFP mammary tumor cells implanted in Balb/c mice", "settings": "for mean tumor volume reduced in comparison to aerosol control: liposomal α-TEA/aerosol daily", "description": "66 cl.4-GFP cells were harvested by trypsinization, centrifuged, resuspended in McCoy's media, containing no supplements at a density of 2 X 10^5/100µl. Mice were injected in the inguinal area at a point equal distance between the 4th and 5th nipples on the right side using a 23 gauge needle.\n50 mice were assigned (10 per group) to aerosol treatment, aerosol control, oral treatment, oral control, or to the no treatment group so that the average tumor volume for all groups were closely matched. […] Tumors were measured using calipers every other day, and volumes were calculated using the formula: volume (mm^3) = [width (mm)^2 X length (mm)] /2. Body weights were determined weekly.\nBalb/c mice were injected with 200,000 66 cl.4 GFP cells subcutaneous in the mammary fat pad area between the 4th and 5th nipple on the right side of the body.\nMice are injected with 200,000 66cl.4 GFP murine mammary tumor cells as described on day 0. Treatments are initiated on day 9 when tumors reached 1-3 mm in size. […] Data represent the mean +/- Standard Error (SE), N = 10 mice for control and treatment groups.\nBalb/c mice were injected s. c. with 2 X 10^5 66 cl.4-GFP cells in the inguinal area between the 4th and 5th nipple on the right side of the body. When tumors reached 2 x 2-4 x 4 mm (9 days after tumor injection), mice were placed into 5 groups ((Group 1: untreated control, Group 2: liposome/aerosol control, Group 3: liposomal α-TEA aerosol treatment, Group 4: peanut oil/gavage control, Group 5: α-TEA in peanut oil/gavage treatment) of 10 mice/group) such that the mean tumor volume of each group was closely matched. Daily treatments were initiated on day 9 after tumor injection.\nBalb/c mice were injected with 200,000 66 cl.4 GFP cells subcutaneous in the mammary fat pad area between the 4th and 5th nipple on the right side of the body. […] Animals were treated with α-TEA in liposome, vitamin E succinate in liposome, or control liposome alone via aerosol, 7 days per week, for 21 days. Animals were given 75 mg compound via nebulization per day such that each animal received 36 µg compound per day.\nThe size of the tumors, 9 - 21 days after injection of 200,000 66 cl.4 GFP cells between the 4th and 5th nipple on the right side of each mouse, is determined. Treatments are initiated on day 9 after tumor inoculation. Each group consists of n=10 +/- SE. Gavage Treatment = Treatments of 5 mg of α-TEA in ethanol and peanut oil (0.1 ml volume) are administered daily starting on day 9 after tumor inoculation and continuing through day 21. Gavage Control = Mice received peanut oil and ethanol alone (0.ml volume)/daily, starting on day 9 after tumor inoculation and continuing through day 21. Data (tumor size) are depicted as the mean +/- standard error for days 9, 11, 13, 15, 17, 19, and 21.\nBalb/c mice were injected with 200,000 66 cl.4 GFP cells subcutaneous in the mammary fat pad area between the 4th and 5th nipple on the right side of the body. […] Animals were treated with α-TEA in liposome, vitamin E succinate in liposome, or control liposome alone via oral gavage, 2 times per day, 7 days per week, for 21 days. Animals were given a total of 6 mg compound per day."}, "[3]": {"system": "A2780 cisplatin-sensitive cell line", "experiment": "Apoptosis of A2780 ovarian cancer cells in culture", "format": "cell-based, human", "settings": "treated in culture with α-TEA"}, "[4]": {"system": "cp-70 human ovarian cancer cells", "experiment": "Apoptosis of cp-70 ovarian cancer cells in culture", "format": "cell-based", "settings": "treated in culture with α-TEA"}}, "note": "Entries after “also recorded” stand apart in the source; their conditions may differ.", "data": [{"smiles": "Cc1c(C)c2c(c(C)c1OCC(=O)O)CC[C@@](C)(CCC[C@H](C)CCC[C@H](C)CCCC(C)C)O2", "note": "[α-TEA, 2,5,7,8-tetramethyl-(2R-(4R,8R,12-trimethyltridecyl)chroman-6-yloxy) acetic acid]", "values": [{"measurement": "mean values of the proliferation biomarker KI-67 reduced", "setting": "[1]", "value": 56, "unit": "%"}, {"measurement": "84 kDa cleavage fragment of PARP", "setting": "[2]; 5 µg/ml", "value": "only intact PARP protein was detected"}, {"measurement": "84 kDa cleavage fragment of PARP", "setting": "[2]; 10 µg/ml", "value": "evident"}, {"measurement": "84 kDa cleavage fragment of PARP", "setting": "[2]; 20 µg/ml", "value": "evident"}, {"measurement": "tumor size at the inoculation site versus gavage control", "setting": "66 cl.4-GFP cells; 5 mg/day/mouse α-TEA in ethanol and peanut oil by gavage", "value": "no significant differences in tumor weights; also recorded: did not differ"}, {"measurement": "Inhibition (%) Tumor Growth", "setting": "66 cl.4-GFP cells; Aerosol, in nebulizer per mouse: α-TEA 5 mg/d, 9NC 2 µg/d, combination 5 mg+2µg/d", "value": 65, "unit": "%"}, {"measurement": "Inhibition (%) Tumor Growth", "setting": "66 cl.4-GFP cells; EtOH/P Oil, Gavage, 5 mg/d", "value": 0, "unit": "%"}, {"measurement": "Inhibition (%) Tumor Growth", "setting": "66 cl.4-GFP cells; Liposomal, Aerosol, 5 mg/d", "value": 70, "unit": "%"}, {"measurement": "Inhibition (%) Tumor Growth", "setting": "66 cl.4-GFP cells; Liposomal, Gavage, 3 mg/2Xd", "value": 70, "unit": "%"}, {"measurement": "size of tumors less than aerosol only control group", "setting": "66 cl.4-GFP cells; aerosol α-TEA liposomes 5 mg/mouse daily, sacrifice day 25, 16 days after treatment initiation", "value": 61, "unit": "%"}, {"measurement": "mean tumor volume reduced in comparison to aerosol control", "setting": "66 cl.4-GFP cells; day 9 of treatment", "value": 23, "unit": "%"}, {"measurement": "mean tumor volume reduced in comparison to aerosol control", "setting": "66 cl.4-GFP cells; day 11 of treatment", "value": 41, "unit": "%"}, {"measurement": "mean tumor volume reduced in comparison to aerosol control", "setting": "66 cl.4-GFP cells; day 13 of treatment", "value": 50, "unit": "%"}, {"measurement": "mean tumor volume reduced in comparison to aerosol control", "setting": "66 cl.4-GFP cells; day 15 of treatment", "value": 67, "unit": "%"}, {"measurement": "mean tumor volume reduced in comparison to aerosol control", "setting": "66 cl.4-GFP cells; day 17 of treatment", "value": 61, "unit": "%"}, {"measurement": "reduced tumor growth", "setting": "66 cl.4-GFP cells; liposome aerosol, 36 µg compound per day, 21 days, day 15", "value": 64, "unit": "%"}, {"measurement": "reduced tumor growth", "setting": "66 cl.4-GFP cells; liposome aerosol, 36 µg compound per day, 21 days, day 17", "value": 76, "unit": "%"}, {"measurement": "reduced tumor growth", "setting": "66 cl.4-GFP cells; liposome aerosol, 36 µg compound per day, 21 days, day 19", "value": 69, "unit": "%"}, {"measurement": "reduced tumor growth", "setting": "66 cl.4-GFP cells; liposome aerosol, 36 µg compound per day, 21 days, day 21", "value": 67, "unit": "%"}, {"measurement": "reduced tumor growth", "setting": "66 cl.4-GFP cells; liposome gavage, 6 mg compound per day, 2 times per day, day 15", "value": 85, "unit": "%"}, {"measurement": "reduced tumor growth", "setting": "66 cl.4-GFP cells; liposome gavage, 6 mg compound per day, 2 times per day, day 17", "value": 85, "unit": "%"}, {"measurement": "reduced tumor growth", "setting": "66 cl.4-GFP cells; liposome gavage, 6 mg compound per day, 2 times per day, day 19", "value": 80, "unit": "%"}, {"measurement": "reduced tumor growth", "setting": "66 cl.4-GFP cells; liposome gavage, 6 mg compound per day, 2 times per day, day 21", "value": 70, "unit": "%"}, {"measurement": "apoptosis", "setting": "[3]", "value": "undergo apoptosis"}, {"measurement": "apoptosis", "setting": "[4]", "value": "undergo apoptosis"}]}]}
